Laboratory results reported in PMC12406204 (Journal of Medicinal Chemistry, 2025).

Columns and labels:
[1] = biological target: T1, CB2R (Homo sapiens, UniProt P34972); test: CB2R β-arrestin recruitment; type: cell-based; set-up: expressed in transfected cells; host or cells: HEK-293T, transient transfection (PEI); details: for Emax: normalized to CP 55,940
Description: (§1) Initially we tested their ability to modify CB2R-mediated cAMP accumulation, providing insights into their functional behavior as either agonists or antagonists (Table ). Moreover, the signaling profiles of selected ligands were investigated through their impact on β-arrestin recruitment and Mitogen-Activated Protein Kinase (MAPK) phosphorylation pathway, enabling a more comprehensive evaluation of their intracellular signaling profiles (Table ).
(§2) JWH-133, a well-known nonbiased (balanced) agonist, was employed as the reference for comparing the signaling profiles of the tested compounds. An operational model analysis was applied to quantify the functional bias of each CB2R-selective agonist. This involved calculating the bias factor by comparing the signaling pathways: β-arrestin versus cAMP, MAPK versus cAMP, and β-arrestin versus MAPK.

[2] = biological target: T1, CB2R; test: CB2R MAPK phosphorylation; type: cell-based; set-up: expressed in transfected cells; host or cells: HEK-293T, transient transfection (PEI); details: for Emax: normalized to CP 55,940
Description: as §1, §2

[3] = tested on: mouse primary neurons; test: Viability of primary neuronal cultures, basal conditions (trypan blue); type: cell-based; details: 100 nM, 24 h
Protocol: A mouse primary cell experiment was performed to examine the neuroprotective effects of CB2R agonists selected for in-depth study (16i, 16j, 18e, 18f, 18o, and 18p). First, to exclude any intrinsic toxicity of the selected candidates, their potential effects on primary cell cultures were assessed. […] This finding is particularly noteworthy, and not self-evident, given the significant neurotoxicity observed during our earlier study with structurally related, classical abused [CB1R/CB2R promiscuous] synthetic cannabinoids (SCRAs). For comparative purposes, Figure A also depicts cell viability data obtained for some abused SCRAs (Figure A, gray bars) under identical conditions.
To prepare primary neurons, brains from fetuses of pregnant CD1 mice were removed (gestational age: 19 days). Neurons were isolated as described in Hradsky et al. Briefly, after removal of the meninges, samples were dissected and digested with 0.25% trypsin (20 min at 37 °C). The effect of trypsin was stopped by adding an equal volume of culture medium (supplemented DMEM). A single-cell suspension was obtained by repeated pipetting followed by passage through a 100 μm-pore mesh. Pelleted (7 min, 200g) cells were resuspended in 2 mL of supplemented DMEM and seeded at a density of 3.5 × 10^5 cells/mL in 6-well plates. After 24 h, the medium was replaced by neurobasal medium supplemented with 2 mM L-glutamine, 100 U/mL penicillin/streptomycin and 2% (v/v) B27 medium (GIBCO, Waltham, MA, USA). Primary neurons were assayed after 14 days in culture. Using NeuN as a marker, the percentage of neurons in the culture was >90%.
Primary cultures of striatal neurons were treated for 24 h with selected SCRAs (100 nM). Afterward, cells were scrapped from the plate and resuspended in neurobasal medium supplemented with 2 mM L-glutamine, 100 U/mL penicillin/streptomycin and 2% (v/v) B27 (GIBCO). Trypan blue staining was performed mixing 1 part of 0.4% trypan blue and 1 part of cell suspension in a plastic tube. After ∼3 min of incubation at room temperature, 10 μL of the mixture were sampled in a Neubauer chamber and counted with a Countess II FL (Life Technologies, California, CA, USA). The unstained (viable) and stained (nonviable) cells were counted separately, and the percentage of viability was calculated as total number of viable cells/total number of cells × 100.

[4] = biological target: T1, CB2R; test: Signaling bias quantification (relative activity model, JWH-133 reference); type: cell-based; set-up: expressed in transfected cells; host or cells: HEK-293T, transient transfection (PEI); details: in parentheses
Description: as §2

[5] = biological target: T1, CB2R; test: CB2R radioligand binding competition ([3H]CP55,940); set-up: expressed in transfected cells; host or cells: HEK-293T (HEK-CB2 cell line); details: for Ki: displacement of [3H]CP 55,940, membranes of HEK-293T cells, n = 3; for SI Ki CB1R/Ki CB2R: selectivity index, affinity ratio
[6] = tested on: human monocytes and macrophages (THP-1 cells); test: Cytokine production in THP-1 monocytes and macrophages (ELISA/qRT-PCR); type: cell-based; details: 100 nM; for cytokine modulation profile (reduction of pro-inflammatory, increase of anti-inflammatory cytokines): monocytes and macrophages; for production of pro-inflammatory cytokines (TNF-α, IFN-γ, IL-1β, IL-6): unstimulated monocytes and macrophages, 24 h
Protocol: Six representative CB2R agonists (16i, 16j, 18e, 18f, 18o, and 18p) were evaluated for their ability to modulate the production of key pro- (e.g., TNF-α, IFN-γ, IL-1β, IL-6) and anti-inflammatory (e.g., IL-4, IL-10) cytokines in human monocytes and macrophages, where CB2R is abundantly expressed. The experiments were performed both in basal and LPS-activated states and would allow to gain insight into how these compounds affect circulating leukocytes (monocytes) and tissue-resident cells (macrophages). To mimic an inflammatory environment, both cell types were also treated with LPS, enabling an assessment of the anti-inflammatory potential of the compounds in both resting and activated states. Alongside the selected ligands, the study included HU308, a well-established CB2R-selective agonist known for its anti-inflammatory properties, and SR144528, a CB2R-selective antagonist. SR144528 was used alone and in combination with the test compounds to confirm that the observed effects were specifically mediated through CB2R activation.
8 Cytokines levels in human monocytes (A, B) and macrophages (C, D) treated with CB2R ligands. THP-1 cells either untreated (A-B) or treated (C, D) with 0.01 μM PMA for 48 h to differentiate them into macrophages, were incubated for additional 24 h in the absence (A, C) or presence of 10 μg/mL LPS (B, D), without (Ctrl) or with the CB2R reference agonist HU308, the reference antagonist SR144528 and the CB2R ligands 16i, 16j, 18e, 18f, 18o, 18p at 100 nM. All the compounds were tested alone (solid bars) and in the presence of the CB2R antagonist SR144528 (striped bars). Cytokine levels were measured by ELISA coupled with qRT-PCR. Data are means ± SD (n = 3). Two-way ANOVA followed by Tukey’s posthoc test was applied. *p < 0.05; **p < 0.01; ***p < 0.001; ****p < 0.0001; * indicates vs Ctrl.
The amount of cytokines was measured in 5 μL of supernatants, derived from 1 × 10^4 cells, using the ProQuantum immunoassays kits for TNF-α, IFN-γ, IL-1β, IL-6, IL-10, and IL-4 [all from ThermoFisher Scientific (Waltham, MA)] according to the manufacturer’s instructions. The results were expressed as pg/mL based on the titration curved of each kits.

T1 sequence (P34972 whole entry): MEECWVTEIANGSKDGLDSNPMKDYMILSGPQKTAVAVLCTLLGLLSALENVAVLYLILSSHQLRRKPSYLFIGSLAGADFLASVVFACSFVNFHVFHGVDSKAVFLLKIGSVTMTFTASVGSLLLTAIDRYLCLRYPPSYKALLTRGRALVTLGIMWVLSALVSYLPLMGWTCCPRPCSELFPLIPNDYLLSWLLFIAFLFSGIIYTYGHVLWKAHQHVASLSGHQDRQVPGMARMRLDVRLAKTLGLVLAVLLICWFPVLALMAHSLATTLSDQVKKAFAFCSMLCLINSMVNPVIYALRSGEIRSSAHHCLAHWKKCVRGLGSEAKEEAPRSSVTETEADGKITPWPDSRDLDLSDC

Q: What does the source list for CCCCCn1nc(C(=O)N2CCCC[C@H]2C(=O)OC)c2ccccc21 [16i]?
A: EC50 [1]: 1090 ± 10 pM; Emax [1]: 48%; EC50 [2]: 380 ± 90 pM; Emax [2]: 88%; primary cell survival [3]: did not affect primary cell survival; Preferred (biased) pathway MAPK – cAMP [4]: G protein; Preferred (biased) pathway β-arrestin – MAPK [4]: MAPK; Preferred (biased) pathway β-arrestin – cAMP [4]: G protein; Ki [5]: 10900 ± 500 pM; SI Ki CB1R/Ki CB2R [5]: 62; cytokine modulation profile (reduction of pro-inflammatory, increase of anti-inflammatory cytokines) [6]: significant reduction; production of pro-inflammatory cytokines (TNF-α, IFN-γ, IL-1β, IL-6) [6]: significantly reduced

Q: What does the source list for NC(=O)[C@H]1CCCCN1C(=O)c1nn(Cc2ccc(F)cc2)c2ccccc12 [18p]?
A: EC50 [1]: 326000 ± 4000 pM; Emax [1]: 77%; EC50 [2]: 400 ± 20 pM; Emax [2]: 79%; primary cell survival [3]: did not affect primary cell survival; Preferred (biased) pathway MAPK – cAMP [4]: MAPK; Preferred (biased) pathway β-arrestin – MAPK [4]: MAPK; Preferred (biased) pathway β-arrestin – cAMP [4]: G protein; Ki [5]: 120000 ± 5000 pM; SI Ki CB1R/Ki CB2R [5]: >100; cytokine modulation profile (reduction of pro-inflammatory, increase of anti-inflammatory cytokines) [6]: significant reduction; production of pro-inflammatory cytokines (TNF-α, IFN-γ, IL-1β, IL-6) [6]: significantly reduced

Q: With CCCCCn1nc(C(=O)N2CCCC[C@@H]2C(=O)OC)c2ccccc21 [16j] as the molecule, how does the EC50 [1] read?
A: 280 ± 20 pM

Q: What about the Emax [1] of the same molecule?
A: 65%

Q: What about the EC50 [2] of the same molecule?
A: 90 ± 3 pM

Q: What about the Emax [2] of the same molecule?
A: 89%

Q: And the primary cell survival [3]?
A: did not affect primary cell survival

Q: What about the “Preferred (biased) pathway MAPK – cAMP” value [4] of the same molecule?
A: No bias

Q: What about the “Preferred (biased) pathway β-arrestin – MAPK” value (“Preferred … – MAPK” below) [4] of the same molecule?
A: MAPK

Q: What about the “Preferred (biased) pathway β-arrestin – cAMP” value [4] of the same molecule?
A: G protein

Q: And the Ki [5]?
A: 89100 ± 3100 pM

Q: What about the “SI Ki CB1R/Ki CB2R” value [5] of the same molecule?
A: >100

Q: What about the “cytokine modulation profile (reduction of pro-inflammatory, increase of anti-inflammatory cytokines)” value [6] of the same molecule?
A: significant reduction

Q: What about the “production of pro-inflammatory cytokines (TNF-α, IFN-γ, IL-1β, IL-6)” value (shortened to “production of pro-inflammatory cytokines”) [6] of the same molecule?
A: significantly reduced

Q: For NC(=O)[C@H]1CCCCN1C(=O)c1cn(CC2CCCCC2)c2ccccc12 [18f], which EC50 [1] is on record?
A: 80 ± 10 pM

Q: And the Emax [1]?
A: 88%

Q: What about the EC50 [2] of the same molecule?
A: 70 ± 7 pM

Q: What about the Emax [2] of the same molecule?
A: 94%

Q: What about the primary cell survival [3] of the same molecule?
A: did not affect primary cell survival

Q: What about the “Preferred (biased) pathway MAPK – cAMP” value [4] of the same molecule?
A: MAPK

Q: What about the “Preferred … – MAPK” value [4] of the same molecule?
A: MAPK

Q: What about the “Preferred (biased) pathway β-arrestin – cAMP” value [4] of the same molecule?
A: β-arrestin

Q: And the Ki [5]?
A: 96800 ± 2600 pM

Q: And the “SI Ki CB1R/Ki CB2R” value [5]?
A: >100

Q: What about the “cytokine modulation profile (reduction of pro-inflammatory, increase of anti-inflammatory cytokines)” value [6] of the same molecule?
A: limited efficacy

Q: And the “production of pro-inflammatory cytokines” value [6]?
A: significantly reduced

Q: How did the EC50 [1] turn out when NC(=O)[C@@H]1CCCCN1C(=O)c1cn(CC2CCCCC2)c2ccccc12 [18e] was run?
A: 400 ± 80 pM

Q: And the Emax [1]?
A: 120%

Q: What about the EC50 [2] of the same molecule?
A: 90 ± 2 pM

Q: What about the Emax [2] of the same molecule?
A: 74%

Q: And the primary cell survival [3]?
A: did not affect primary cell survival

Q: What about the “Preferred (biased) pathway MAPK – cAMP” value [4] of the same molecule?
A: MAPK

Q: What about the “Preferred … – MAPK” value [4] of the same molecule?
A: MAPK

Q: And the “Preferred (biased) pathway β-arrestin – cAMP” value [4]?
A: β-arrestin

Q: And the Ki [5]?
A: 30200 ± 1200 pM

Q: And the “SI Ki CB1R/Ki CB2R” value [5]?
A: >100

Q: What about the “cytokine modulation profile (reduction of pro-inflammatory, increase of anti-inflammatory cytokines)” value [6] of the same molecule?
A: limited efficacy

Q: And the “production of pro-inflammatory cytokines” value [6]?
A: significantly reduced

Q: NC(=O)[C@@H]1CCCCN1C(=O)c1nn(Cc2ccc(F)cc2)c2ccccc12 [18o] was tested. Which EC50 [1] did it give?
A: 60900 ± 2500 pM

Q: What about the Emax [1] of the same molecule?
A: 148%

Q: What about the EC50 [2] of the same molecule?
A: 30 ± 3 pM

Q: What about the Emax [2] of the same molecule?
A: 68%

Q: What about the primary cell survival [3] of the same molecule?
A: did not affect primary cell survival

Q: What about the “Preferred (biased) pathway MAPK – cAMP” value [4] of the same molecule?
A: MAPK

Q: What about the “Preferred … – MAPK” value [4] of the same molecule?
A: MAPK

Q: And the “Preferred (biased) pathway β-arrestin – cAMP” value [4]?
A: G protein

Q: And the Ki [5]?
A: 54600 ± 1100 pM

Q: And the “SI Ki CB1R/Ki CB2R” value [5]?
A: >100

Q: What about the “cytokine modulation profile (reduction of pro-inflammatory, increase of anti-inflammatory cytokines)” value [6] of the same molecule?
A: significant reduction

Q: What about the “production of pro-inflammatory cytokines” value [6] of the same molecule?
A: significantly reduced
